Laboratory results from PubChem BioAssay AID1117319 (Southern Research Institute, 2015).
pIC50: −log10 of the molar value. Results filed as inconclusive are left out.

Target: Virion infectivity factor (Human immunodeficiency virus type 1 group M subtype B (isolate BH10)) + Virion infectivity factor (Human immunodeficiency virus type 1 group M subtype B (isolate BRU/LAI)) + Virion infectivity factor (Human immunodeficiency virus type 1 group M subtype B (isolate PCV12)) + Virion infectivity factor (Human immunodeficiency virus type 1 group M subtype B (isolate HXB2)) + DNA dC->dU-editing enzyme APOBEC-3G (Homo sapiens) (UniProt P69720+P69721+P69722+P69723+Q9HC16)
Experiment: HIV-1 Vif–A3G interaction blockers – biochemical, TR-FRET, GST-Vif 1-94, biotin-A3G peptide, dose response retest, primary screen (AID 1117319);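 further: Vif residues 1-94 fused to GST binding biotinylated APOBEC3G peptide 110-148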
Conditions: TR-FRET GST-Vif / biotin-A3G peptide binding

Row | Compound | pIC50
1 | Cc1cccc2cc(-c3ccccc3)c(-c3ccccc3)c[n+]12 | 5.17
2 | Cc1cccc(C)c1NS(=O)(=O)c1c(C)[nH]c(=O)[nH]c1=O | 4.07
3 | O=C(CSc1nc2cc([N+](=O)[O-])ccc2n1-c1ccccc1)NCc1ccc2c(c1)OCO2 | 4.33
4 | CSc1nc(N2CCOCC2)c2c3c(sc2n1)CCC3 | 4.38
5 | CCC(C(=O)OCC(=O)Nc1ccc(SC(F)F)cc1)c1ccccc1 (configuration not stated) | 4.08
6 | COc1ccc(C2=NOC(C(=O)NCc3cccs3)C2)cc1OC (configuration not stated) | 4.05
7 | c1cnc(N2CCN(c3cnccn3)CC2)nc1 | 4.84
8 | COc1ccc(S(=O)(=O)Nc2cc(SCC(=O)O)c(O)c3ccccc23)cc1 | 4.66
9 | c1coc(-c2nc3nc4ccccc4n3nc2-c2ccco2)c1 | 4.91
10 | O=C1NC(=O)N(Cc2ccc(F)cc2)C(=O)/C1=C\C=C\c1ccco1 | 4.72
11 | O=C(O)c1cccc2cccc(-c3c4ccc(=O)c(O)c-4oc4c(O)c(O)ccc34)c12 | 6.28
12 | COc1ccc2c(c1)n([O-])c1c([n+]2=O)CCC1 | 5.29
13 | C[c-]1[c-](C)[c-](C)[c-](C)[c-]1C.[Fe].c1cc2nccc(N3CCCC3)[c-]2c1 (configuration not stated) | 5.69
14 | Cc1cc(/C=C2\C(=O)NC(=O)N(Cc3ccco3)C2=O)c(C)n1-c1ccc(O)cc1 | 5.23
15 | Oc1ccc(N=Cc2sc3ccccc3c2Cl)cc1 | 5.51
16 | Cc1c(Br)c(O)c(Br)c2sc(=O)oc12 | 5.75
17 | O=C(O)c1ccc(S(=O)(=O)c2ccc([N+](=O)[O-])cc2[N+](=O)[O-])cc1 | 4.27
18 | O=C1NC(=Nc2ccc(O)cc2)S/C1=C\C=C\c1ccco1 | 5.29
19 | Cc1cccc(-n2c(N)cc(=O)nc2SCC(=O)NC2CCCCC2)c1 | 4.03
20 | O=c1nc2s/c(=C\c3ccco3)c(=O)n2nc1Cc1ccccc1 | 5.38
21 | Cc1cccc(OCCn2cccc2/C=C2/C(=O)NC(=O)N(Cc3ccco3)C2=O)c1 | 5.38
22 | NS(=O)(=O)c1ccc(CCNC(=O)CCS(=O)(=O)c2ccc(Br)cc2)cc1 | 4.60
23 | CCOC(=O)C(C(=O)OCC)c1cc(Br)c2noc3c2c1C(=O)c1ccccc1-3 | 5.61

Row | Compound | pIC50
24 | CCCCN1C2CCCC1CC(NC(=O)c1ccc(OC)c(OC)c1)C2 (configuration not stated) | 4.72
25 | O=C(NC(=S)N1CCCc2ccccc21)c1ccccc1 | 4.55
26 | O=c1ccc2c(-c3ccccc3S(=O)(=O)O)c3ccc(O)c(O)c3oc-2c1O | 6.47
27 | O=C(CC1C(=O)NCCN1Cc1ccc(F)cc1)NCCN1CCCc2ccccc21 (configuration not stated) | 4.01
28 | O=C1OC(c2ccc(F)cc2)=C/C1=C\c1ccc([N+](=O)[O-])o1 | 5.06
29 | O=C(Nc1nc(-c2ccco2)c(-c2ccco2)s1)c1ccc(F)cc1F | 4.07
30 | CC(=O)c1ccc2c(c1)C1C=CCC1C(c1ccncc1)N2 (configuration not stated) | 5.50
31 | COC(=O)C(C)Sc1nnc(Cc2cc(=O)[nH]c(=O)[nH]2)n1-c1cc(C)ccc1C (configuration not stated) | 4.02
32 | O=C(N/N=C/C=C/c1ccco1)c1cccs1 | 5.15
33 | Oc1ccc2c(c1)C1CCCC1(N1CCOCC1)O2 (configuration not stated) | 5.37
34 | CN(C)c1ccc(NC(=O)CSc2nc3ccccc3c(=O)n2C2CCCCC2)cc1 | 4.66
35 | O=C1NC(=O)N(c2ccccc2)C(=O)/C1=C\c1ccc([N+](=O)[O-])s1 | 4.87
36 | Cc1ccc2cc(CN(Cc3nnnn3Cc3ccco3)CC3CCCO3)c(=O)[nH]c2c1C (configuration not stated) | 4.46
37 | Cc1ccc(C)n1-c1cccc(C(=O)O)c1 | 6.14
38 | COC(=O)c1ccc(COc2ccccc2/C=C(\C#N)C(=O)Nc2c(C)cc(C)cc2C)cc1 | 4.64
39 | CN1C(=O)/C(=C/c2ccco2)SC1=Nc1cccc(C(=O)O)c1 | 4.72
40 | O=[N+]([O-])c1cc2ccccc2c(O)c1O | 4.65
41 | C(=C\c1ccco1)/C=N/n1cnnc1 | 5.87
42 | C=CCn1c(C)cc(-c2csc(N)n2)c1C | 5.91
43 | COc1ccc(-c2cc(-c3ccco3)[nH]c(=O)c2C#N)cc1 | 4.60
44 | O=C(/C=C/c1ccco1)NC(=S)Nc1ccc(C(=O)O)cc1 | 4.79
45 | Cc1cc(S(=O)(=O)N(Cc2ccccn2)Cc2ccco2)ccc1-n1cnnn1 | 4.08
46 | COc1cc(-c2cccs2)cc(=O)c2c(C)oc(C)c12 | 5.45

Row | Compound | pIC50
47 | COC1=C(OC)C(=O)C(Sc2ccc3ccccc3c2)=CC1=O | 5.06
48 | C=CCn1c(SCC(=O)c2cc(C)n(C(C)COC)c2C)nc2sc(C)c(C)c2c1=O (configuration not stated) | 4.57
49 | CC(C)CNC1=CC(=O)CC(c2ccco2)C1 (configuration not stated) | 5.43
50 | O=[N+]([O-])c1c(Nc2ccccc2O)cc(Cl)c2nonc12 | 5.03
51 | O=C(NNC(=O)c1ccccc1O)c1ccc(-c2ccc([N+](=O)[O-])cc2)o1 | 4.49
52 | O=[N+]([O-])c1ccc(N/N=C/c2ccc(O)c(O)c2O)c(S(=O)(=O)N2CCOCC2)c1 | 5.94
53 | Oc1ccc(N=Cc2ccc(O)c(O)c2)cc1 | 6.00
54 | CCCCn1cnc2cc(NCc3ccncc3)ccc21 | 4.45
55 | O=c1cc(OCc2ccccc2)cc[nH]1 | 5.51
56 | CCN(CC(=O)Nc1c(C(=O)OC)[nH]c2ccccc12)c1ccc2c(c1)OCO2 | 5.23
57 | C=C(C)C(=O)Nc1cccc(C2=NOC3(C2)C[C@@H](C(N)=O)N(C(=O)/C=C/CC)C3)c1 (some centres not stated) | 5.48
58 | CCCCCC#CCC#CCC#CCC#CCCCC(=O)O | 6.07
59 | Cc1ccc(C(=O)C2=C(O)C(=O)N(c3ncccn3)C2c2ccc(F)cc2)o1 (configuration not stated) | 4.66
60 | CCOc1cccc(=O)c2c(C)n(CC(=O)c3ccccc3)c(C)c12 | 5.08
61 | COc1ccc(S(=O)(=O)N(C(C)=O)c2ccc3oc(=O)sc3c2)cc1 | 4.05
62 | CN(CC(=O)Nc1cccc(F)c1)C(=O)c1cc(-c2ccco2)nc2ccccc12 | 5.32
63 | CC1(C)CC(=O)C2=C(C1)NCN(Cc1ccc3c(c1)OCO3)C2 | 4.04
64 | Cc1ccc[n+](-c2[nH]c(=O)sc2/C=N/NC(=O)c2ccccc2[O-])c1 | 4.29
65 | COc1cc(C(=O)NNC(=S)NCc2ccco2)cc(OC)c1OC | 4.20
66 | O=C(/C=C/c1ccc(O)c(O)c1)OC1C(O)CC(OC(=O)/C=C/c2ccc(O)c(O)c2)(C(=O)O)CC1O (configuration not stated) | 4.79
67 | Cc1ccccc1-c1nc(CN2CCC(C(=O)N3CCN(c4ccccn4)CC3)CC2)c(C)o1 | 4.36
68 | O=C1CC(=O)N(Cc2ccco2)C(=O)N1 | 5.35
69 | Cc1ccccc1NC(=O)CSc1nnc(-c2ccco2)c(-c2ccco2)n1 | 5.93

Row | Compound | pIC50
70 | COc1cc2c(cc1OC)C(=O)C(Br)CC2 (configuration not stated) | 5.83
71 | Cc1ccc(-c2c3c([nH]c(=S)c2C#N)CCCC3)o1 | 4.86
72 | O=C(NC1CCCC1)c1ccc2nc(-c3ccco3)c(-c3ccco3)nc2c1 | 6.52
73 | CCCCn1c(N)c(N(CCOC)C(=O)c2cc(-c3ccco3)nc3ccccc23)c(=O)[nH]c1=O | 4.96
74 | CN(C)c1ccc(N2C(=O)CC(Nc3ccc(N4CCOCC4)cc3)C2=O)cc1 (configuration not stated) | 5.91
75 | O=[n+]1c2c(n([O-])c3cc(Cl)ccc31)CCCC2 | 5.01
76 | Cc1n[nH]c(=S)n(NC(=O)/C=C/C(=O)Nn2c(=S)[nH]nc(C)c2=O)c1=O | 5.62
77 | O=C(O)c1cc2cccc(S(=O)(=O)N3CCOCC3)c2cc1O | 4.42
78 | Cc1cc(/C=C2\SC(=S)NC2=O)c(C)n1C | 4.44
79 | O=C(Cn1cnc2c(nnn2Cc2ccc(F)cc2)c1=O)NCc1ccco1 | 4.02
80 | O=c1[nH]nc(CNc2ccc(O)cc2)c2ccccc12 | 5.46
81 | CSc1ccccc1NC(=O)c1noc2c1CCC2 | 4.74
82 | O=C(COC(=O)c1ccccc1)Nc1ncc([N+](=O)[O-])s1 | 5.18
83 | O/N=C1\CCC\C1=C/c1ccco1 | 5.12
84 | Fc1ccccc1/C=C1\CCCC2=C1Nc1ncnn1C2c1ccccc1F (configuration not stated) | 4.42
85 | Cc1cc(C(F)(F)F)n2nc(C(=O)O)c(Cl)c2n1 | 4.10
86 | CCOc1ccccc1C(O)C1=CC(=O)c2ccccc2C1=O (configuration not stated) | 5.12
87 | O=S(=O)(O)c1cc(O)c2cc(Nc3ccccc3)ccc2c1 | 5.64
88 | CC(=O)N(C1=C(Cl)C(=O)c2ccccc2C1=O)c1ccc(C(=O)O)cc1 | 4.22
89 | CCOC(=O)c1nn(-c2ccc(Cl)cc2Cl)c(=N)c(C#N)c1C | 4.90
90 | CCCCn1c(SCC(=O)NCc2ccco2)nc2ccc(N3CCOCC3)cc2c1=O | 4.90
91 | CC1Cc2ccccc2N1Cc1nc2cc(C(F)(F)F)ccc2c(=O)[nH]1 (configuration not stated) | 4.13
92 | Cn1c(=O)c2c(ncn2CC(=O)N/N=C/C=C/c2ccco2)n(C)c1=O | 5.19

Row | Compound | pIC50
93 | O=c1c(O)cccc2cc(O)c(O)c(O)c12 | 5.99
94 | CCCC1=NN2C(=N)/C(=C\c3ccc(SCc4ccco4)o3)C(=O)N=C2S1 | 5.09
95 | CCCn1cnc2cc(NCc3ccccn3)ccc21 | 4.54
96 | O=C(CCCCCN1C(=O)CCC1=O)Nc1ccc(Cl)c(C(F)(F)F)c1 | 5.41
97 | CN(Cc1cnc2nc(N)nc(N)c2n1)c1ccc(C(=O)NC(CCC(=O)O)C(=O)O)cc1 (configuration not stated) | 4.31
98 | COC(=O)c1ccc(COc2ccc(/C=N/Nc3cccc(C(=O)O)c3)cc2)cc1 | 4.20
99 | O=C1NC(=O)C(=Cc2ccc(SC3CCCCC3)o2)C(=O)N1 | 4.54
100 | N#C/C=C\Oc1ccc(Cl)cc1N | 4.30
101 | Cc1ccc(NC(=O)CN(C)C(=O)c2cccc(-n3cccc3)c2)cc1 | 5.34
102 | Cc1cc(C)c2c(=N)c3ccccc3n(CCCCCCCCn3c4ccccc4c(=N)c4c(C)cc(C)nc43)c2n1 | 5.84
103 | Cc1nc2cc(NC(=O)Nc3ccc(N4CCOCC4)cc3)ccc2n1C | 4.00
104 | CCNC(=O)COC(=O)c1cc(-c2ccco2)nc2ccccc12 | 5.41
105 | O=C(OCC(=O)N1CCN(C(=O)c2ccco2)CC1)c1cc(-c2ccco2)nc2ccccc12 | 5.40
106 | Cc1ccc(C)n1-c1sccc1C(=O)O | 5.72
107 | COC(=O)c1ccc(CC(=O)c2c(C)cc(O)cc2O)o1 | 5.63
108 | O=S(=O)(O)c1cc(O)c2c(O)c(N=Nc3cc(Cl)ccc3O)c(S(=O)(=O)O)cc2c1 | 4.11
109 | O=C(N/N=C/C=C/c1ccco1)c1ccncc1 | 5.63
110 | O=C1/C(=C\c2ccco2)NC(=S)N1c1ccccc1 | 4.79
111 | CN1CCN(C2=C(Cl)C(=O)C(c3cnc(N4CCCCC4)s3)=C(Cl)C2=O)CC1 | 5.60
112 | O=C1C(O)CC2c3ccccc3CC3(CCCC3)N12 (configuration not stated) | 4.30
